The supplement of paper PMC10307832

How the values were obtained:
Assay in all cases: relative viability (nuclei count vs DMSO), 5 days (fraction); higher = more cells survive
AZD5582 = compound: C[C@@H](C(=O)N[C@@H](C1CCCCC1)C(=O)N2CCC[C@H]2C(=O)N[C@@H]3[C@@H](CC4=CC=CC=C34)OCC#CC#CCO[C@@H]5CC6=CC=CC=C6[C@@H]5NC(=O)[C@@H]7CCCN7C(=O)[C@H](C8CCCCC8)NC(=O)[C@H](C)NC)NC [AZD5582]
Method in brief: (§1)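 Only plates meeting two conditions passed: control CV below 25% and at least one doubling. Lung cancer cell lines, kept overnight at 37 °C in 1536-well plates, were pinned with five library-drug doses (not always all listed) √10 apart on vehicle-anchored plates and grown 5 days without medium change. A one-step fix, permeabilisation and Hoechst stain preceded 4× imaging and MetaXpress nuclear counting. Viability equals treated-well nuclei divided by vehicle-well nuclei, as the median over plates.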

Temozolomide = compound: Cn1nnc2c(C(N)=O)ncn2c1=O [Temozolomide]
Method in brief: as §1

[1] = compound: Cn1nnc2c(C(N)=O)ncn2c1=O [Temozolomide] + N=C(N)NC(=N)NCCc1ccccc1 [Phenformin] (partner 250 µM)
Method in brief: (§2)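 Dosing by pin tool came one day after lung cancer cell lines were seeded in 1536-well plates, using either one drug or a fixed anchor-drug dose plus five library-drug doses (not always all listed) in √10 steps. After 5 days, nuclei were counted on 4× images. Relative viability is treated-well nuclei count divided by vehicle-well nuclei count, and values are medians of duplicate plates.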

AZD5582 + Navitoclax = compound: C[C@@H](C(=O)N[C@@H](C1CCCCC1)C(=O)N2CCC[C@H]2C(=O)N[C@@H]3[C@@H](CC4=CC=CC=C34)OCC#CC#CCO[C@@H]5CC6=CC=CC=C6[C@@H]5NC(=O)[C@@H]7CCCN7C(=O)[C@H](C8CCCCC8)NC(=O)[C@H](C)NC)NC [AZD5582] + CC1(C)CCC(c2ccc(Cl)cc2)=C(CN2CCN(c3ccc(C(=O)NS(=O)(=O)c4ccc(N[C@H](CCN5CCOCC5)CSc5ccccc5)c(S(=O)(=O)C(F)(F)F)c4)cc3)CC2)C1 [Navitoclax] (partner 0.5 µM)
Method in brief: as §2

Cell Line | relative viability (AZD5582; 0.001581 µM) | relative viability (AZD5582; 0.005 µM) | relative viability (AZD5582; 0.01581 µM) | relative viability (AZD5582; 0.05 µM) | relative viability (Temozolomide; 0.2 µM) | relative viability (Temozolomide; 0.6325 µM) | relative viability (Temozolomide; 2 µM) | relative viability (Temozolomide; 6.325 µM) | relative viability (Temozolomide; 20 µM) | relative viability ([1]; first compound 0.2 µM) | relative viability ([1]; first compound 0.6325 µM) | relative viability ([1]; first compound 2 µM) | relative viability ([1]; first compound 6.325 µM) | relative viability ([1]; first compound 20 µM) | relative viability (AZD5582 + Navitoclax; first compound 0.001581 µM) | relative viability (AZD5582 + Navitoclax; first compound 0.005 µM) | relative viability (AZD5582 + Navitoclax; first compound 0.05 µM) | relative viability (AZD5582 + Navitoclax; first compound 0.01581 µM)
ABC-1 | 0.898 | 1.03 | 0.767 | 0.936 | 1.07 | 0.925 | 1.08 | 0.958 | 1.02 | 0.241 | 0.232 | 0.24 | 0.213 | 0.237 |  |  |  | 
NCI-H2405 | 1 | 1.12 | 0.957 | 1.02 | 1.05 | 1 | 1.06 | 0.935 | 0.978 | 0.492 | 0.395 | 0.42 | 0.378 | 0.431 | 0.875 | 1.21 | 0.866 | 
IA-LM | 0.77 | 0.86 | 0.828 | 0.897 | 1.11 | 0.94 | 1 | 0.961 | 0.951 |  |  |  |  |  | 0.499 | 0.538 | 0.714 | 0.951
NCI-H1355 | 0.902 | 1.01 | 0.771 | 0.823 | 1.01 | 0.985 | 1.06 | 0.947 | 0.982 | 0.499 | 0.517 | 0.522 | 0.44 | 0.452 | 0.926 | 0.951 | 1.01 | 0.954
NCI-H2085 | 1.05 | 1.08 | 0.998 | 0.993 | 1 | 1.02 | 1.02 | 0.964 | 0.949 | 0.594 | 0.707 | 0.809 | 0.689 | 0.649 | 1.14 | 1.1 | 1.01 | 1.12
HOP-62 | 0.875 | 1.03 | 1.04 | 1.06 | 1.11 | 0.997 | 1.04 | 0.926 | 1.01 | 0.939 | 0.642 | 0.818 | 0.657 | 0.717 | 0.945 | 0.917 | 1.14 | 1.08
NCI-H2126 | 0.93 | 1.04 | 0.808 | 0.901 | 0.957 | 1.03 | 1.05 | 0.98 | 1.03 | 0.503 | 0.591 | 0.574 | 0.513 | 0.519 | 0.829 | 0.835 | 0.706 | 0.834
NCI-H661 | 0.984 | 1 | 0.984 | 1.07 | 0.993 | 0.935 | 1.04 | 0.947 | 0.843 | 0.252 | 0.277 | 0.247 | 0.279 | 0.27 |  |  |  | 
SW 900 | 0.628 | 0.851 | 0.684 | 0.466 | 1.07 | 1.1 | 0.984 | 0.772 | 0.793 | 0.754 | 0.671 | 0.556 | 0.464 | 0.718 |  |  |  | 
Calu-6 | 0.83 | 0.724 | 0.989 | 0.573 | 1.08 | 1 | 1.07 | 0.954 | 0.99 |  |  |  |  |  | 0.718 | 0.635 | 0.467 | 0.871
NCI-H1623 | 1.03 | 1.08 | 0.995 | 0.95 |  | 1.18 | 1.04 | 0.979 | 0.66 |  | 0.646 | 0.521 | 0.563 | 0.309 |  |  |  | 
LCLC-103H | 1.02 | 1.14 | 0.852 | 1.01 | 0.995 | 1 | 1.06 | 0.928 | 0.92 | 0.36 | 0.365 | 0.359 | 0.31 | 0.322 |  |  |  | 
NCI-H358 | 0.915 | 1.17 | 0.944 | 0.972 | 0.855 | 1.02 | 1 | 0.904 | 0.777 | 0.21 | 0.425 | 0.367 | 0.296 | 0.257 |  |  |  | 
NCI-H1563 | 0.957 | 0.936 | 0.836 | 1.07 | 0.903 | 0.937 | 0.999 | 0.99 | 0.993 | 0.671 | 0.689 | 0.668 | 0.602 | 0.643 |  |  |  | 
NCI-H1299 | 1 | 1.02 | 1 | 0.991 | 1.03 | 1.04 | 1.07 | 1.03 | 1.03 |  |  |  |  |  | 1 | 1.07 | 1.04 | 1.08
EBC-1 | 0.867 | 0.95 | 0.964 | 0.948 | 0.997 | 1.01 | 1.06 | 0.917 | 1.09 |  |  |  |  |  | 0.394 | 0.408 | 0.373 | 0.4
NCI-H650 | 0.842 | 0.982 | 0.542 | 0.564 | 1.01 | 0.975 | 1.02 | 0.974 | 0.913 | 0.547 | 0.443 | 0.403 | 0.404 | 0.423 |  |  |  | 
NCI-H522 | 0.841 | 1 | 0.957 | 0.795 | 0.842 | 0.985 | 1.02 | 0.998 | 0.915 | 0.653 | 0.664 | 0.728 | 0.626 | 0.629 |  |  |  | 
